Data from patent US20170071944A1, “MODULATORS OF TOLL-LIKE RECEPTORS FOR THE TREATMENT OF HIV” (Gilead Sciences, Inc., priority 2015, published 2017).

Tested on: PBMC cultures from HIV-1 infected subjects on cART
Assay: Induced cytokines and chemokines in PBMC cultures from HIV-1 infected subjects on cART (multiplexed Luminex)
Assay type: cell-based, human
Settings: day 2, geometric mean, 4 subjects
Experimental: To further characterize the immune modulatory effect of TLR8 agonists in cells from HIV-infected subjects, the production of secreted cytokines and chemokines was measured in PBMCs from 4 HIV-infected subjects on suppressive cART (anonymized participant IDs 180-183). PBMCs were purified, as described in Example 121, and immediately added to tissue culture plates pre-equilibrated at 37° C. with media containing DMSO (vehicle control) or with the TLR8 modulating compound Example 15 at concentrations ranging from 1.0 nM to 10.0 μM. On day 2 after treatment, cell-free culture supernatants were collected and frozen at −80 C for subsequent analysis. Frozen supernatants were thawed at room temperature, and the indicated cytokines and chemokines were quantified with a custom multiplexed xMAP Luminex® assay following the manufacturer's instructions (Thermo Fisher Scientific Inc., Grand Island, N.Y., custom-designed kit).
Data are expressed as geometric mean cytokine values (pg/ml) obtained from 4 subjects' PBMCs. Geometric mean fold-activation from three independent incubation samples for each condition. Fold (fold-activation) is calculated as a ratio of the concentration of cytokine detected in cell culture supernatants from agonist treated samples relative to DMSO treated samples

CCCC[C@H](CO)Nc1nc(N)nc2cccnc12 [Example 15]
GRO-α (Ex 15 1 nM): 31 pg/mL
GRO-α Fold vs DMSO (Ex 15 1 nM): 1 fold
Granzyme B (Ex 15 1 nM): 80 pg/mL
Granzyme B Fold vs DMSO (Ex 15 1 nM): <1 fold
I-TAC (Ex 15 1 nM): 82 pg/mL
I-TAC Fold vs DMSO (Ex 15 1 nM): 2 fold
IFN-α (Ex 15 1 nM): 4 pg/mL
IFN-α Fold vs DMSO (Ex 15 1 nM): 2 fold
IFN-γ (Ex 15 1 nM): 50 pg/mL
IFN-γ Fold vs DMSO (Ex 15 1 nM): 2 fold
IL-6 pg/ml (Ex 15 1 nM): 61 pg/mL
IL-8 pg/ml (Ex 15 1 nM): 624 pg/mL
IL-10 pg/ml (Ex 15 1 nM): 25 pg/mL
IL-18 pg/ml (Ex 15 1 nM): 23 pg/mL
IL-23 pg/ml (Ex 15 1 nM): 131 pg/mL
IL-1RA (Ex 15 1 nM): 11610 pg/mL
IL-1RA Fold vs DMSO (Ex 15 1 nM): 3 fold
IL-1β (Ex 15 1 nM): 5 pg/mL
IL-1β Fold vs DMSO (Ex 15 1 nM): 2 fold
IL-6 Fold vs DMSO (Ex 15 1 nM): 1 fold
IL-8 Fold vs DMSO (Ex 15 1 nM): 2 fold
IL-10 Fold vs DMSO (Ex 15 1 nM): 1 fold
IL-18 Fold vs DMSO (Ex 15 1 nM): 1 fold
IL-23 Fold vs DMSO (Ex 15 1 nM): 2 fold
IP-10 pg/ml (Ex 15 1 nM): 696 pg/mL
IP-10 Fold vs DMSO (Ex 15 1 nM): 3 fold
MCP-1 pg/ml (Ex 15 1 nM): 180 pg/mL
MCP-1 Fold vs DMSO (Ex 15 1 nM): 3 fold
MIP-1α (Ex 15 1 nM): 251 pg/mL
MIP-1α Fold vs DMSO (Ex 15 1 nM): 5 fold
MIP-1β (Ex 15 1 nM): 2189 pg/mL
MIP-1β Fold vs DMSO (Ex 15 1 nM): 2 fold
MIP-3α (Ex 15 1 nM): 23 pg/mL
MIP-3α Fold vs DMSO (Ex 15 1 nM): 1 fold
MMP-1 pg/ml (Ex 15 1 nM): 119 pg/mL
MMP-1 Fold vs DMSO (Ex 15 1 nM): 1 fold
GRO-α (Ex 15 10 nM): 29 pg/mL
GRO-α Fold vs DMSO (Ex 15 10 nM): 1 fold
Granzyme B (Ex 15 10 nM): 74 pg/mL
Granzyme B Fold vs DMSO (Ex 15 10 nM): <1 fold
I-TAC (Ex 15 10 nM): 70 pg/mL
I-TAC Fold vs DMSO (Ex 15 10 nM): 1 fold
IFN-α (Ex 15 10 nM): 4 pg/mL
IFN-α Fold vs DMSO (Ex 15 10 nM): 2 fold
IFN-γ (Ex 15 10 nM): 48 pg/mL
IFN-γ Fold vs DMSO (Ex 15 10 nM): 2 fold
IL-6 pg/ml (Ex 15 10 nM): 61 pg/mL
IL-8 pg/ml (Ex 15 10 nM): 333 pg/mL
IL-10 pg/ml (Ex 15 10 nM): 21 pg/mL
IL-18 pg/ml (Ex 15 10 nM): 26 pg/mL
IL-23 pg/ml (Ex 15 10 nM): 86 pg/mL
IL-1RA (Ex 15 10 nM): 5309 pg/mL
IL-1RA Fold vs DMSO (Ex 15 10 nM): 1 fold
IL-1β (Ex 15 10 nM): 2 pg/mL
IL-1β Fold vs DMSO (Ex 15 10 nM): 1 fold
IL-6 Fold vs DMSO (Ex 15 10 nM): 1 fold
IL-8 Fold vs DMSO (Ex 15 10 nM): 1 fold
IL-10 Fold vs DMSO (Ex 15 10 nM): 1 fold
IL-18 Fold vs DMSO (Ex 15 10 nM): 2 fold
IL-23 Fold vs DMSO (Ex 15 10 nM): 1 fold
IP-10 pg/ml (Ex 15 10 nM): 259 pg/mL
IP-10 Fold vs DMSO (Ex 15 10 nM): 1 fold
MCP-1 pg/ml (Ex 15 10 nM): 91 pg/mL
MCP-1 Fold vs DMSO (Ex 15 10 nM): 1 fold
MIP-1α (Ex 15 10 nM): 70 pg/mL
MIP-1α Fold vs DMSO (Ex 15 10 nM): 1 fold
MIP-1β (Ex 15 10 nM): 1302 pg/mL
MIP-1β Fold vs DMSO (Ex 15 10 nM): 1 fold
MIP-3α (Ex 15 10 nM): 23 pg/mL
MIP-3α Fold vs DMSO (Ex 15 10 nM): 1 fold
MMP-1 pg/ml (Ex 15 10 nM): 104 pg/mL
MMP-1 Fold vs DMSO (Ex 15 10 nM): 1 fold
TNF-α (Ex 15 10 nM): 35 pg/mL
TNF-α Fold vs DMSO (Ex 15 10 nM): 2 fold
GRO-α (Ex 15 100 nM): 469 pg/mL
GRO-α Fold vs DMSO (Ex 15 100 nM): 20 fold
Granzyme B (Ex 15 100 nM): 79 pg/mL
Granzyme B Fold vs DMSO (Ex 15 100 nM): <1 fold
I-TAC (Ex 15 100 nM): 32 pg/mL
I-TAC Fold vs DMSO (Ex 15 100 nM): 1 fold
IFN-α (Ex 15 100 nM): 3 pg/mL
IFN-α Fold vs DMSO (Ex 15 100 nM): 1 fold
IFN-γ (Ex 15 100 nM): 49 pg/mL
IFN-γ Fold vs DMSO (Ex 15 100 nM): 2 fold
IL-6 pg/ml (Ex 15 100 nM): 4424 pg/mL
IL-8 pg/ml (Ex 15 100 nM): 2561 pg/mL
IL-10 pg/ml (Ex 15 100 nM): 2459 pg/mL
IL-18 pg/ml (Ex 15 100 nM): 20 pg/mL
IL-23 pg/ml (Ex 15 100 nM): 130 pg/mL
IL-1RA (Ex 15 100 nM): 41213 pg/mL
IL-1RA Fold vs DMSO (Ex 15 100 nM): 12 fold
IL-1β (Ex 15 100 nM): 135 pg/mL
IL-1β Fold vs DMSO (Ex 15 100 nM): 45 fold
IL-6 Fold vs DMSO (Ex 15 100 nM): 57 fold
IL-8 Fold vs DMSO (Ex 15 100 nM): 8 fold
IL-10 Fold vs DMSO (Ex 15 100 nM): 145 fold
IL-12p70 pg/ml (Ex 15 100 nM): 6 pg/mL
IL-12p70 Fold vs DMSO (Ex 15 100 nM): 2 fold
IL-18 Fold vs DMSO (Ex 15 100 nM): 1 fold
IL-23 Fold vs DMSO (Ex 15 100 nM): 2 fold
IP-10 pg/ml (Ex 15 100 nM): 226 pg/mL
IP-10 Fold vs DMSO (Ex 15 100 nM): 1 fold
MCP-1 pg/ml (Ex 15 100 nM): 2162 pg/mL
MCP-1 Fold vs DMSO (Ex 15 100 nM): 33 fold
MIP-1α (Ex 15 100 nM): 172 pg/mL
MIP-1α Fold vs DMSO (Ex 15 100 nM): 3 fold
MIP-1β (Ex 15 100 nM): 1302 pg/mL
MIP-1β Fold vs DMSO (Ex 15 100 nM): 1 fold
MIP-3α (Ex 15 100 nM): 28 pg/mL
MIP-3α Fold vs DMSO (Ex 15 100 nM): 1 fold
MMP-1 pg/ml (Ex 15 100 nM): 198 pg/mL
MMP-1 Fold vs DMSO (Ex 15 100 nM): 2 fold
TNF-α (Ex 15 100 nM): 132 pg/mL
TNF-α Fold vs DMSO (Ex 15 100 nM): 6 fold
GRO-α (Ex 15 1000 nM): 413 pg/mL
GRO-α Fold vs DMSO (Ex 15 1000 nM): 18 fold
Granzyme B (Ex 15 1000 nM): 878 pg/mL
Granzyme B Fold vs DMSO (Ex 15 1000 nM): 4 fold
I-TAC (Ex 15 1000 nM): 105 pg/mL
